Measurements published in patent US12291521B2, “Indazole compounds as mGluR4 allosteric potentiators, compositions, and methods of treating neurological dysfunction” (Vanderbilt University, priority 2017, dated 2025).
Read-outs that look alike come from different tables or passages of the source.

Experiments:
[1] = biological target: T1, human mGlu4 (Homo sapiens, UniProt Q14833); test: mGlu4 PAM potentiation in human mGlu4/Gqi5 cells with ~EC20 glutamate (Hamamatsu FDSS); format: cell-based; conditions: ~EC20 concentration of glutamate
T1 construct: expressed in transfected cells; host or cells: CHO (Chinese Hamster Ovary) cells
T1 sequence (Q14833 33-912): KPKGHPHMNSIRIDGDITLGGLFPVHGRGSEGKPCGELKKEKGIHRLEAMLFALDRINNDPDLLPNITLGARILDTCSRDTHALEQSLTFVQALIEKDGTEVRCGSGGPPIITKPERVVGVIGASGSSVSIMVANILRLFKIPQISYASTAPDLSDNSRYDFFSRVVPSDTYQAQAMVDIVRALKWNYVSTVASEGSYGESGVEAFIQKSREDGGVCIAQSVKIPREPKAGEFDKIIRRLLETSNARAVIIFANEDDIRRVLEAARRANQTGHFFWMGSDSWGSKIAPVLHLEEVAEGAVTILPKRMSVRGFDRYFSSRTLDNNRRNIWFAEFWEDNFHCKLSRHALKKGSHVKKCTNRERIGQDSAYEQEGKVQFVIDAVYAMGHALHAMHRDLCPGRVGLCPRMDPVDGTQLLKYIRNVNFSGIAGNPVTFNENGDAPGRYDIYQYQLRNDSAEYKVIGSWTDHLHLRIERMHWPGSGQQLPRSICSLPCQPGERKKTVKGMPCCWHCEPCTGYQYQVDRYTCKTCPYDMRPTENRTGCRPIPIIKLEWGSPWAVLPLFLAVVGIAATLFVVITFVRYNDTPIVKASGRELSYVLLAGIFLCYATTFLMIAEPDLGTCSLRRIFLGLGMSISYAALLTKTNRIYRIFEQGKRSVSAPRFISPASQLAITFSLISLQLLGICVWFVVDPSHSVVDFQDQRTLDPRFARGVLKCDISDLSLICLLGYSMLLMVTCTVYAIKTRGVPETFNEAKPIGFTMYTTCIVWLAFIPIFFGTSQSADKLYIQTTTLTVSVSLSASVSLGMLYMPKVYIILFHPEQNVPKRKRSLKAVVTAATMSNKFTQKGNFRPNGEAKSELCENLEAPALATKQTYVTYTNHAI
Procedure: The disclosed compounds and compositions can be evaluated for their ability to act as a potentiatior of metabotropic glutamate receptor activity, in particular mGluR4 activity, by any suitable known methodology known in the art. For example, Chinese Hamster Ovary (CHO) cells transfected with human mGluR4 or HEK cells co-transfected with rat mGluR4 and the G-protein regulated Inwardly Rectifying Potassium channel (GIRK) were plated in clear bottom assay plates for assay in a Hamamatsu FDSS Fluorometric Plate Reader. The cells were loaded with either a Ca2+-sensitive fluorescent dye or the thallium responsive dye and the plates were washed and placed into a suitable kinetic plate reader. For human mGluR4 assays, a fluorescence baseline was established for 3-5 seconds, the disclosed compounds were then added to the cells, and the response in cells was measured. Approximately two and a half minutes later, a concentration of mGluR4 orthosteric agonist (e.g. glutamate, L-AP4, or L-SOP) eliciting approximately 20% (EC20) of the maximal agonist response was added to the cells, and the response was measured. Two minutes later, a concentration of mGluR4 agonist (e.g. glutamate, L-AP4, or L-SOP) eliciting 80% (EC80) of the maximal agonist response was added to the cells, and the response was measured. For rat mGluR4/GIRK experiments, a baseline was established for approximately five seconds, disclosed compounds were added, and either an EC20 or EC80 concentration of agonist was added approximately two and one half minutes later.
The above described assay operated in two modes. In the first mode, a range of concentrations of the disclosed compounds are added to cells, followed by a single fixed concentration of agonist. If the compound acts as a potentiatior, an EC50 value for potentiation and a maximum extent of potentiation by the compound at this concentration of agonist is determined by non-linear curve fitting. If the compound acts as an antagonist, an IC50 value is determined by non-linear curve fitting. In the second mode, several fixed concentrations of the disclosed compounds are added to various wells on a plate, followed by a range in concentrations of agonist for each concentration of disclosed compound. The EC50 values for the agonist at each concentration of compound are determined by non-linear curve fitting. A decrease in the EC50 value of the agonist with increasing concentrations of the sample compound (a leftward shift of the agonist concentration-response curve) is an indication of the degree of mGluR4 potentiation at a given concentration of the sample compound. A decrease in the maximal response of the agonist with increasing concentrations of the sample compounds, with or without a rightward shift in agonist potency, is an indication of the degree of antagonism at mGluR4. The second mode also indicates whether the sample compounds also affect the maximum response to mGluR4 to agonists.

[2] = Brain-plasma Kp (CNS penetration); format: in vivo; conditions: rat, brain and plasma; species not given

With `Cn1nc(OCC2CCCOC2)c2ccc(NC(=O)c3ccc(F)cn3)cc21` (stereo not shown) the EC50 ([1]; second chart, read-out: hmGluR4 PAM EC50) was 99.2 nM and the Kp [2] was 3.29.
In the case of `CC(C)Oc1nn(C)c2cc(Nc3n[nH]c4cccnc34)ccc12` [Compound 1], the EC50 ([1]; read-out: mGlu4 PAM EC50) is reported as 413 nM.
`Cc1cc(COc2nn(C)c3cc(Nc4n[nH]c5cccnc45)ccc23)on1` [Compound 2] gave an EC50 ([1]; read-out: mGlu4 PAM EC50) of 104 nM.
In the case of `CC(C)COc1nn(C)c2cc(Nc3n[nH]c4cccnc34)ccc12` [Compound 3], the EC50 ([1]; read-out: mGlu4 PAM EC50) is reported as 231 nM.
`Cn1nc(OCc2cccnc2)c2ccc(Nc3n[nH]c4cccnc34)cc21` [Compound 6] gave an EC50 ([1]; read-out: mGlu4 PAM EC50) of 82.7 nM.
`Cc1ccnc(C(=O)Nc2ccc3c(OCC4CCOC4)nn(C)c3c2)c1` (stereo not shown) [Compound 98] showed an EC50 ([1]; read-out: mGlu4 PAM EC50) of 991 nM.
